These compounds were tested on ABCA1 mRNA (assay: ABCA1 mRNA induction in THP-1 cells, QuantiGene branched DNA assay). Settings: 10 μM test compound, 18-20 hours.
Format: cell-based
In short: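 THP-1 cells, grown to subconfluence, treated with compounds at 10 and 3 μM in DMEM/BSA for 18–20 h. Lysates hybridized with ABCA1-specific probe 16–18 h at 53 °C; QuantiGene branched DNA luminescence gives fold increase over DMSO.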

Compound	ABCA1 Induction Fold Increase over DMSO Vehicle [FOLD INCREASE]
CC(C)=CCOC(=O)c1ccc2c(c1)C1Nc3ccc(C(O)(C(F)(F)F)C(F)(F)F)cc3C(C)(C)C1CO2 (stereo not shown) [Number 13, 3-methylbut-2-enyl 7,7-dimethyl-9-[2,2,2-trifluoro-1-hydroxy-1-(trifluoromethyl)ethyl]-7,12,12a,6a-tetrahydrochromano[4,3-b]quinoline-2-carboxylate]	3.4
CC(C)=CCOC(=O)c1ccc2c(c1)OCC1C2Nc2ccc(CB(O)O)cc2C1(C)C (stereo not shown) [Number 11, 3-methylbut-2-enyl 9-(dihydroxyboramethyl)-7,7-dimethyl-7,12,12a,6a-tetrahydrochromano[4,3-b]quinoline-3-carboxylate]	1.7
COc1cccc2c1[C@H]1Nc3cc(C#N)ccc3C(C)(C)[C@H]1CO2 [Number 63, (12aS,6aR)-1-methoxy-7,7-dimethyl-7,12,12a,6a-tetrahydrochromano[4,3-b]quinoline-10-carbonitrile]	3.5
COc1cccc2c1OC[C@H]1C2Nc2ccc(C(O)(C(F)(F)F)C(F)(F)F)cc2C1(C)C (stereo partly drawn) [Number 34, 2-((6aR)-4-methoxy-7,7-dimethyl(7,12,12a,6a-tetrahydrochromano[4,3-b]quinolin-9-yl))-1,1,1,3,3,3-hexafluoropropan-2-ol]	4.5
COc1ccccc1-c1ccc2c(c1)C(C)(C)C1COc3c(OC)cc(Cl)cc3C1N2 (stereo not shown) [Number 100, 1-(2-chloro-4-methoxy-7,7-dimethyl(7,12,12a,6a-tetrahydrochromano[4,3-b]quinolin-9-yl))-2-methoxybenzene]	3.0
CC(C)=CCOC(=O)c1ccc2c(c1)OC[C@@H]1[C@H]2Nc2ccc(B(O)O)cc2C1(C)C [Number 10, 3-methylbut-2-enyl (6aS,12aR)-9-(dihydroxyboramethyl)-7,7-dimethyl-7,12,12a,6a-tetrahydrochromano[4,3-b]quinoline-3-carboxylate]	1.5
CC1(C)c2cc(C(O)(C(F)(F)F)C(F)(F)F)ccc2NC2c3cc(Br)ccc3OCC21 (stereo not shown) [Number 1, 2-(2-bromo-7,7-dimethyl(7,12,12a,6a-tetrahydrochromano[4,3-b]quinolin-9-yl))-1,1,1,3,3,3-hexafluoropropan-2-ol]	4.4
COc1cccc2c1OC[C@H]1[C@H]2Nc2ccc(CCC(=O)O)cc2C1(C)C [Number 28, 3-((12aR,6aR)-4-methoxy-7,7-dimethyl-7,12,12a,6a-tetrahydrochromano[4,3-b]quinolin-9-yl)propanoic acid]	1.9
CC(=O)c1ccc2c(c1)C(C)(C)C1COc3c(F)cccc3C1N2 (stereo not shown) [Number 101, 1-(4-fluoro-7,7-dimethyl-7,12,12a,6a-tetrahydrochromano[4,3-b]quinolin-9-yl)ethan-1-one]	4.0
CCOP(=O)(Cc1ccc2c(c1)C(C)(C)C1COc3c(OC)cc(Cl)cc3C1N2)OCC (stereo not shown) [Number 91, [(2-chloro-4-methoxy-7,7-dimethyl(7,12,12a,6a-tetrahydrochromano[4,3-b]quinolin-9-yl))methyl]diethoxyphosphino-1-one]	6.2
CC1(C)c2cc(C(O)(C(F)(F)F)C(F)(F)F)ccc2N[C@H]2c3cc(Br)ccc3OC[C@H]21 [Number 2, 2-((6aS,12aR)-2-bromo-7,7-dimethyl(7,12,12a,6a-tetrahydrochromano[4,3-b]quinolin-9-yl))-1,1,1,3,3,3-hexafluoropropan-2-ol]	5.1
COc1cccc2c1OC[C@@H]1[C@@H]2Nc2ccccc2C1(C)C [Number 38, (12aS,6aS)-4-methoxy-7,7-dimethyl-7,12,12a,6a-tetrahydrochromano[4,3-b]quinoline]	7.0
CCOC(=O)c1ccc(-c2ccc3c(c2)C(C)(C)[C@H]2COc4cccc(OC)c4[C@H]2N3)cc1 (relative stereo) [Number 107, ethyl 4-((12aS,6aR)-1-methoxy-7,7-dimethyl-7,12,12a,6a-tetrahydrochromano[4,3-b]quinolin-9-yl)benzoate]	2.9
COc1cccc2c1OCC1C2Nc2ccc(-c3cccc(C(=O)OC(C)C)c3)cc2C1(C)C (stereo not shown) [Number 60, methylethyl 3-(4-methoxy-7,7-dimethyl-7,12,12a,6a-tetrahydrochromano[4,3-b]quinolin-9-yl)benzoate]	4.4
COc1cccc2c1OC[C@@H]1[C@@H]2Nc2ccc(C(=O)N3CCS(=O)(=O)CC3)cc2C1(C)C [Number 128, ((6aS,12aS)-6a,7,12,12a-tetrahydro-4-methoxy-7,7-dimethyl-6H-chromeno[4,3-b]quinolin-9-yl)(1,1-dione-1,4-thiazaperhydroin-yl)methanone]	2.7
CNS(=O)(=O)Cc1ccc2c(c1)C(C)(C)C1COc3c(OC)cccc3C1N2 (stereo not shown) [Number 59, {[(4-methoxy-7,7-dimethyl(7,12,12a,6a-tetrahydrochromano[4,3-b]quinolin-9-yl))methyl]sulfonyl}methylamine]	6.1
Cc1cccc2c1OCC1[C@@H]2Nc2ccccc2C1(C)C (stereo partly drawn) [Number 32, (12aS)-4,7,7-trimethyl-7,12,12a,6a-tetrahydrochromano[4,3-b]quinoline]	4.9
COc1ccc(Br)c2c1OCC1C2Nc2ccc(-c3cnco3)cc2C1(C)C (stereo not shown) [Number 79, 1-bromo-4-methoxy-7,7-dimethyl-9-(1,3-oxazol-5-yl)-7,12,12a,6a-tetrahydrochromano[4,3-b]quinoline]	4.1
COc1cccc2c1[C@H]1Nc3ccc(C(C)C)cc3C(C)(C)[C@H]1CO2 [Number 54, (12aS,6aR)-1-methoxy-7,7-dimethyl-9-(methylethyl)-7,12,12a,6a-tetrahydrochromano[4,3-b]quinoline]	4.3
COc1cccc2c1[C@H]1Nc3ccc(-c4csc(C)n4)cc3C(C)(C)[C@H]1CO2 [Number 110, (12aS,6aR)-1-methoxy-7,7-dimethyl-9-(2-methyl(1,3-thiazol-4-yl))-7,12,12a,6a-tetrahydrochromano[4,3-b]quinoline]	6.0
COc1cc(Br)cc2c1OC[C@H]1[C@H]2Nc2ccc(C(O)(C(F)(F)F)C(F)(F)F)cc2C1(C)C [Number 66, 2-((12aR,6aR)-2-bromo-4-methoxy-7,7-dimethyl(7,12,12a,6a-tetrahydrochromano[4,3-b]quinolin-9-yl))-1,1,1,3,3,3-hexafluoropropan-2-ol]	2.5
CC(C)(C)OC(=O)N1CCN(C(=O)c2ccc3c(c2)C(C)(C)[C@H]2COc4cccc(F)c4[C@H]2N3)CC1 [Number 126, ((6aR,12aS)-6a,7,12,12a-tetrahydro-1-fluoro-7,7-dimethyl-6H-chromeno[4,3-b]quinolin-9-yl)(4-tert-butyl-carboxylate-piperazin-1-yl)methanone]	7.3
COc1cccc2c1OCC1C2Nc2ccc(CC(=O)O)cc2C1(C)C (stereo not shown) [Number 26, 2-(4-methoxy-7,7-dimethyl-7,12,12a,6a-tetrahydrochromano[4,3-b]quinolin-9-yl)acetic acid]	5.0
CC1(C)c2cc(C(O)(C(F)(F)F)C(F)(F)F)ccc2NC2c3ccc(C(=O)O)cc3OCC21 (stereo not shown) [Number 14, 7,7-dimethyl-9-[2,2,2-trifluoro-1-hydroxy-1-(trifluoromethyl)ethyl]-7,12,12a,6a-tetrahydrochromano[4,3-b]quinoline-3-carboxylic acid]	3.1

Same assay, conditions: Homo sapiens, 10 μM test compound, 18-20 hours, read-out: ABCA1 Induction Fold Increase over DMSO Vehicle

Compound	fold induction at 10 µM
COc1cc(I)cc2c1OC[C@@H]1[C@@H]2Nc2ccc(-n3ncc(C(=O)O)c3C)cc2C1(C)C [Number 177, 1-((6aS,12aS)-6a,7,12,12a-tetrahydro-2-iodo-4-methoxy-7,7-dimethyl-6H-chromeno[4,3-b]quinolin-9-yl)-5-methyl-1H-pyrazole-4-carboxylic acid]	2.6
COc1cc(I)cc2c1OC[C@H]1[C@@H]2Nc2ccc(-n3ncc(C(=O)O)c3C)cc2C1(C)C [Number 178, 1-((6aR,12aS)-6a,7,12,12a-tetrahydro-2-iodo-4-methoxy-7,7-dimethyl-6H-chromeno[4,3-b]quinolin-9-yl)-5-methyl-1H-pyrazole-4-carboxylic acid]	5.1
COc1cccc2c1[C@@H]1[C@H](CO2)C(C)(C)c2ccccc2N1C(C)C [Number 155, (6aR,12aS)-6a,7,12,12a-tetrahydro-12-isopropyl-1-methoxy-7,7-dimethyl-6H-chromeno[4,3-b]quinoline]	2.7
CCOC(=O)c1cnn(-c2ccc3c(c2)C(C)(C)[C@H]2COc4cccc(OC)c4[C@H]2N3)c1C [Number 116, ethyl 1-((6aR,12aS)-6a,7,12,12a-tetrahydro-1-methoxy-7,7-dimethyl-6H-chromeno[4,3-b]quinolin-9-yl)-5-methyl-1H-pyrazole-4-carboxylate]	2.7
COc1ccc2c(c1)C(C)(C)[C@@H]1COc3cccc(OC)c3[C@H]1N2C [Number 176, (6aS,12aS)-6a,7,12,12a-tetrahydro-1,9-dimethoxy-7,7,12-trimethyl-6H-chromeno[4,3-b]quinoline]	2.9
CCOP(=O)(Cc1ccc2c(c1)C(C)(C)C1COc3cccc(OC)c3C1N2)OCC (stereo not shown) [Number 180, diethyl(6a,7,12,12a-tetrahydro-1-methoxy-7,7-dimethyl-6H-chromeno[4,3-b]quinolin-9-yl)methylphosphonate]	2.2
COc1cccc2c1[C@@H]1[C@H](CO2)C(C)(C)c2ccccc2N1C1CCCCC1 [Number 166, (6aR,12aS)-12-cyclohexyl-6a,7,12,12a-tetrahydro-1-methoxy-7,7-dimethyl-6H-chromeno[4,3-b]quinoline]	12.5

Reference: US7432276B2, “ABCA1 elevating compounds” (CV Therapeutics, Inc., priority 2005, dated 2008)
